Data taken from patent publication US20230081426A1, “COMPOUNDS AND METHODS FOR KRAS MODULATION AND INDICATIONS THEREFOR” (Plexxikon Inc., priority 2020, published 2023).

Legend:
[1] = target: T1, G12D-mutant human KRAS (amino acid residues 1-188) (Homo sapiens, UniProt P01116, G12D); assay: KRAS Binding Disruption Assay (AlphaScreen; biotinylated KRpep-2d analogue or RAF1-RBD), G12D; conditions: KRAS G12D; geometric mean; read-out: KRAS GMean IC50 (uM) MUTATION: G12D
T1 construct: G12D or G12C-mutant human KRAS (amino acid residues 1-188) with FLAG tag; made in house; host or cells: E. coli
Summary of the method: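 Mutant KRAS (5-20 nM) incubated 1 h at 25° C with test compound and 5-20 nM biotinylated KRpep-2d analogue or RAF1-RBD in 20 mM HEPES pH 7.5, 100 mM NaCl, 5 mM MgCl2, 0.01% Tween-20, 0.01% BSA.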

[2] = target: T2, G12V-mutant human KRAS (amino acid residues 1-188) (Homo sapiens, UniProt P01116, G12V); assay: KRAS Binding Competition Assay (AlphaScreen; biotinylated KRpep-2d analogue), G12V; conditions: geometric mean, read-out: KRAS GMean IC50 (uM) MUTATION: G12V
T2 construct: G12V-mutant human KRAS (amino acid residues 1-188) with FLAG tag was purified from E. coli; made in house; host or cells: E. coli
Protocol: Compound binding disrupts the interaction of KRpep-2d with KRAS, leading to a decrease in Alpha signal.
All assay components were prepared in 20 mM HEPES (pH 7.5), 100 mM NaCl, 5 mM MgCl2, 0.01% Tween-20, and 0.01% BSA. Biotinylated analogues of KRpep-2d were custom synthesized. The binding competition assays were performed using 10 nM of mutant KRAS and 10 nM of biotinylated KRpep-2d analogue. 19 μL of KRAS protein and 4 μL of biotinylated KRpep-2d were added to the wells of a 384-well plate containing 1 μL of various concentrations of test compound or DMSO vehicle. 16 wells containing KRAS, biotinylated KRpep-2d, and 5% DMSO served as high controls. 16 wells containing KRAS only and 5% DMSO served as low controls. Binding reactions were incubated for 1 hour at 25° C., then Anti-Flag Acceptor and Streptavidin Donor Alpha beads were added at a final concentration of 10 μg/mL for an additional hour at room temperature. Alpha signal was read out on a Perkin Elmer Envision HTS instrument. The percentage inhibition at individual compound concentrations relative to high and low controls was calculated. The data were analyzed by using nonlinear regression to generate IC50 values.

| IC50 [1] [µM] | IC50 [2] [µM] | SMILES |
| --- | --- | --- |
| 0.0001 to 10 | 10 to 100 | Cc1cc(C(=O)N2[C@@H]3CC[C@H]2CN(c2nc(OCC45CCCN4CCC5)nc4cc(-c5cc(O)cc6ccccc56)ccc24)C3)[nH]c(=O)n1 [P-0109, 6-((1R,5S)-3-(7-(3-hydroxynaphthalen-1-yl)-2-((tetrahydro-1H-pyrrolizin-7a(5H)-yl)methoxy)quinazolin-4-yl)-3,8-diazabicyclo[3.2.1]octane-8-carbonyl)-4-methylpyrimidin-2(1H)-one] |
| 0.0001 to 10 | 0.0001 to 10 | O=C([C@@H]1CCNC1)N1[C@@H]2CC[C@H]1CN(c1nc(OCC34CCCN3CCC4)nc3cc(-c4cc(O)cc5ccccc45)ccc13)C2 [P-0111, ((1R,5S)-3-(7-(3-hydroxynaphthalen-1-yl)-2-((tetrahydro-1H-pyrrolizin-7a(5H)-yl)methoxy)quinazolin-4-yl)-3,8-diazabicyclo[3.2.1]octan-8-yl)((R)-pyrrolidin-3-yl)methanone] |
| 0.0001 to 10 | 0.0001 to 10 | O=C([C@H]1CCNC1)N1[C@@H]2CC[C@H]1CN(c1nc(OCC34CCCN3CCC4)nc3cc(-c4cc(O)cc5ccccc45)ccc13)C2 [P-0112, ((1R,5S)-3-(7-(3-hydroxynaphthalen-1-yl)-2-((tetrahydro-1H-pyrrolizin-7a(5H)-yl)methoxy)quinazolin-4-yl)-3,8-diazabicyclo[3.2.1]octan-8-yl)((S)-pyrrolidin-3-yl)methanone] |
| 0.0001 to 10 | 0.0001 to 10 | O=C(CN1[C@@H]2CC[C@H]1CN(c1nc(OCC34CCCN3CCC4)nc3cc(-c4cc(O)cc5ccccc45)ccc13)C2)C1CCNCC1 [P-0138, 2-((1R,5S)-3-(7-(3-hydroxynaphthalen-1-yl)-2-((tetrahydro-1H-pyrrolizin-7a(5H)-yl)methoxy)quinazolin-4-yl)-3,8-diazabicyclo[3.2.1]octan-8-yl)-1-(piperidin-4-yl)ethan-1-one] |
| 10 to 100 | 10 to 100 | COCCS(=O)(=O)N1[C@@H]2CC[C@H]1CN(c1nc(OCC34CCCN3CCC4)nc3cc(-c4cc(O)cc5ccccc45)ccc13)C2 [P-0139, 4-(4-((1R,5S)-8-((2-methoxyethyl)sulfonyl)-3,8-diazabicyclo[3.2.1]octan-3-yl)-2-((tetrahydro-1H-pyrrolizin-7a(5H)-yl)methoxy)quinazolin-7-yl)naphthalen-2-ol] |
| 0.0001 to 10 | 0.0001 to 10 | O=C(N[C@@H]1C[C@H]2CC[C@@H]1O2)N1[C@@H]2CC[C@H]1CN(c1nc(OCC34CCCN3CCC4)nc3cc(-c4cc(O)cc5ccccc45)ccc13)C2 [P-0140, (1R,5S)-N-((1S,2R,4R)-7-oxabicyclo[2.2.1]heptan-2-yl)-3-(7-(3-hydroxynaphthalen-1-yl)-2-((tetrahydro-1H-pyrrolizin-7a(5H)-yl)methoxy)quinazolin-4-yl)-3,8-diazabicyclo[3.2.1]octane-8-carboxamide] |
| 0.0001 to 10 | 0.0001 to 10 | CC(C)(O)CNC(=O)N1[C@@H]2CC[C@H]1CN(c1nc(OCC34CCCN3CCC4)nc3cc(-c4cc(O)cc5ccccc45)ccc13)C2 [P-0141, (1R,5S)-N-(2-hydroxy-2-methylpropyl)-3-(7-(3-hydroxynaphthalen-1-yl)-2-((tetrahydro-1H-pyrrolizin-7a(5H)-yl)methoxy)quinazolin-4-yl)-3,8-diazabicyclo[3.2.1]octane-8-carboxamide] |
| 0.0001 to 10 | 0.0001 to 10 | O=C(N[C@H]1CCCNC1)N1[C@@H]2CC[C@H]1CN(c1nc(OCC34CCCN3CCC4)nc3cc(-c4cc(O)cc5ccccc45)ccc13)C2 [P-0142, (1R,5S)-3-(7-(3-hydroxynaphthalen-1-yl)-2-((tetrahydro-1H-pyrrolizin-7a(5H)-yl)methoxy)quinazolin-4-yl)-N-((S)-piperidin-3-yl)-3,8-diazabicyclo[3.2.1]octane-8-carboxamide] |
| 0.0001 to 10 | 0.0001 to 10 | O=C(N[C@@H]1CCCNC1)N1[C@@H]2CC[C@H]1CN(c1nc(OCC34CCCN3CCC4)nc3cc(-c4cc(O)cc5ccccc45)ccc13)C2 [P-0143, (1R,5S)-3-(7-(3-hydroxynaphthalen-1-yl)-2-((tetrahydro-1H-pyrrolizin-7a(5H)-yl)methoxy)quinazolin-4-yl)-N-((R)-piperidin-3-yl)-3,8-diazabicyclo[3.2.1]octane-8-carboxamide] |

Second part, the compound before the results:

| SMILES | IC50 [1] [µM] | IC50 [2] [µM] |
| --- | --- | --- |
| NS(=O)(=O)CCC(=O)N1[C@@H]2CC[C@H]1CN(c1nc(OCC34CCCN3CCC4)nc3cc(-c4cc(O)cc5ccccc45)ccc13)C2 [P-0093, 3-((1R,5S)-3-(7-(3-hydroxynaphthalen-1-yl)-2-((tetrahydro-1H-pyrrolizin-7a(5H)-yl)methoxy)quinazolin-4-yl)-3,8-diazabicyclo[3.2.1]octan-8-yl)-3-oxopropane-1-sulfonamide] | 0.0001 to 10 | 0.0001 to 10 |
| O=C(O)CNC(=O)N1[C@@H]2CC[C@H]1CN(c1nc(OCC34CCCN3CCC4)nc3cc(-c4cc(O)cc5ccccc45)ccc13)C2 [P-0094, ((1R,5S)-3-(7-(3-hydroxynaphthalen-1-yl)-2-((tetrahydro-1H-pyrrolizin-7a(5H)-yl)methoxy)quinazolin-4-yl)-3,8-diazabicyclo[3.2.1]octane-8-carbonyl)glycine] | 0.0001 to 10 | 0.0001 to 10 |
| Oc1cc(-c2ccc3c(N4C[C@H]5CC[C@@H](C4)N5)nc(OCC45CCCCN4CCCC5)nc3c2)c2ccccc2c1 [P-0095, 4-(4-((1R,5S)-3,8-diazabicyclo[3.2.1]octan-3-yl)-2-((octahydro-9aH-quinolizin-9a-yl)methoxy)quinazolin-7-yl)naphthalen-2-ol] | 0.0001 to 10 | 10 to 100 |
| O=C(NC1CCNC1)N1[C@@H]2CC[C@H]1CN(c1nc(OCC34CCCN3CCC4)nc3cc(-c4cc(O)cc5ccccc45)ccc13)C2 (stereo partly drawn) [P-0097, (1R,5S)-3-(7-(3-hydroxynaphthalen-1-yl)-2-((tetrahydro-1H-pyrrolizin-7a(5H)-yl)methoxy)quinazolin-4-yl)-N-(pyrrolidin-3-yl)-3,8-diazabicyclo[3.2.1]octane-8-carboxamide] | 0.0001 to 10 | 0.0001 to 10 |
| O=C(OC1CCOC1)N1[C@@H]2CC[C@H]1CN(c1nc(OCC34CCCN3CCC4)nc3cc(-c4cc(O)cc5ccccc45)ccc13)C2 (stereo partly drawn) [P-0098, Tetrahydrofuran-3-yl (1R,5S)-3-(7-(3-hydroxynaphthalen-1-yl)-2-((tetrahydro-1H-pyrrolizin-7a(5H)-yl)methoxy)quinazolin-4-yl)-3,8-diazabicyclo[3.2.1]octane-8-carboxylate] | 0.0001 to 10 | 0.0001 to 10 |
| Cc1ccc2[nH]ncc2c1-c1ccc2c(N3C[C@H]4CC[C@@H](C3)N4)nc(OCC34CCCN3CCC4)nc2c1F [P-0101, 4-((1R,5S)-3,8-diazabicyclo[3.2.1]octan-3-yl)-8-fluoro-7-(5-methyl-1H-indazol-4-yl)-2-((tetrahydro-1H-pyrrolizin-7a(5H)-yl)methoxy)quinazoline] | 0.0001 to 10 | 10 to 100 |
| CN1CCC[C@H]1COc1nc(N2C[C@H]3CC[C@@H](C2)N3C(=O)CO)c2ccc(-c3cc(O)cc4ccccc34)c(F)c2n1 [P-0104, 1-((1R,5S)-3-(8-fluoro-7-(3-hydroxynaphthalen-1-yl)-2-(((S)-1-methylpyrrolidin-2-yl)methoxy)quinazolin-4-yl)-3,8-diazabicyclo[3.2.1]octan-8-yl)-2-hydroxyethan-1-one] | 0.0001 to 10 | 0.0001 to 10 |
| CN1CCC[C@H]1COc1nc(N2C[C@H]3CC[C@@H](C2)N3C(=O)CCS(N)(=O)=O)c2ccc(-c3cc(O)cc4ccccc34)c(F)c2n1 [P-0105, 3-((1R,5S)-3-(8-fluoro-7-(3-hydroxynaphthalen-1-yl)-2-(((S)-1-methylpyrrolidin-2-yl)methoxy)quinazolin-4-yl)-3,8-diazabicyclo[3.2.1]octan-8-yl)-3-oxopropane-1-sulfonamide] | 0.0001 to 10 | 0.0001 to 10 |
| CN1CCC[C@H]1COc1nc(N2C[C@H]3CC[C@@H](C2)N3C(=O)c2n[nH]c(=O)[nH]2)c2ccc(-c3cc(O)cc4ccccc34)c(F)c2n1 [P-0107, 5-((1R,5S)-3-(8-fluoro-7-(3-hydroxynaphthalen-1-yl)-2-(((S)-1-methylpyrrolidin-2-yl)methoxy)quinazolin-4-yl)-3,8-diazabicyclo[3.2.1]octane-8-carbonyl)-2,4-dihydro-3H-1,2,4-triazol-3-one] | 0.0001 to 10 | 0.0001 to 10 |
| O=C(c1c[nH]c(=O)[nH]c1=O)N1[C@@H]2CC[C@H]1CN(c1nc(OCC34CCCN3CCC4)nc3cc(-c4cc(O)cc5ccccc45)ccc13)C2 [P-0108, 5-((1R,5S)-3-(7-(3-hydroxynaphthalen-1-yl)-2-((tetrahydro-1H-pyrrolizin-7a(5H)-yl)methoxy)quinazolin-4-yl)-3,8-diazabicyclo[3.2.1]octane-8-carbonyl)pyrimidine-2,4(1H,3H)-dione] | 0.0001 to 10 | 0.0001 to 10 |
